Measured values: the NIST ThermoML archive (doi:10.1016/j.fluid.2014.04.038)
Several values for one entry are separate records, joined by “and”; a condition that tells them apart may be missing. Identical values can stand only once.

Settings: Hot wire method

Cc1ccccc1 [toluene]
Liquid
Settings | thermal conductivity [W/m/K]
318.8 K | 0.1241
328.48 K | 0.1218
333.34 K | 0.1209
338.23 K | 0.1195
341.16 K | 0.1201
343.09 K | 0.1176
346.01 K | 0.116
350.87 K | 0.1149
355.71 K | 0.1151
365.42 K | 0.1116
370.29 K | 0.1112

N#N [nitrogen]
Gas
Settings | thermal conductivity
321.58 K, 2776.2 kPa | 0.0278 W/m/K
321.95 K, 2778.7 kPa | 0.02777 W/m/K
321.99 K, 2778.7 kPa | 0.02793 W/m/K
322.25 K, 2776.2 kPa | 0.02762 W/m/K
322.29 K, 2776.2 kPa | 0.02772 W/m/K
322.61 K, 2776.2 kPa | 0.02762 W/m/K
323.16 K, 1008.8 kPa | 0.02726 W/m/K
323.18 K, 1008.8 kPa | 0.02729 W/m/K
324.06 K, 1008.8 kPa | 0.02748 W/m/K
324.12 K, 1008.8 kPa | 0.02747 W/m/K
325.1 K, 1008.8 kPa | 0.0277 W/m/K and 0.02772 W/m/K
325.44 K, 574.1 kPa | 0.02822 W/m/K
326.18 K, 2705.7 kPa | 0.02794 W/m/K
326.24 K, 2705.7 kPa | 0.02859 W/m/K
326.43 K, 4299.5 kPa | 0.02906 W/m/K
326.51 K, 4299.5 kPa | 0.02914 W/m/K
326.67 K, 3835.8 kPa | 0.02909 W/m/K and 0.02897 W/m/K
326.72 K, 2705.7 kPa | 0.02848 W/m/K
326.75 K, 2705.7 kPa | 0.02853 W/m/K
327.32 K, 1657.7 kPa | 0.02798 W/m/K
327.57 K, 1657.7 kPa | 0.02789 W/m/K
327.66 K, 4299.5 kPa | 0.0294 W/m/K
327.7 K, 4299.5 kPa | 0.02966 W/m/K
327.84 K, 1209.3 kPa | 0.02782 W/m/K
327.85 K, 1209.3 kPa | 0.02748 W/m/K
327.86 K, 3835.8 kPa | 0.0294 W/m/K and 0.02906 W/m/K
328.83 K, 1657.7 kPa | 0.02814 W/m/K
328.85 K, 1657.7 kPa | 0.02817 W/m/K
329.15 K, 1209.3 kPa | 0.02785 W/m/K
329.17 K, 1209.3 kPa | 0.02784 W/m/K
330.94 K, 2682.6 kPa | 0.02851 W/m/K
330.96 K, 2682.6 kPa | 0.0287 W/m/K
332.04 K, 2682.6 kPa | 0.02834 W/m/K
332.12 K, 2682.6 kPa | 0.02902 W/m/K
335.72 K, 2657.4 kPa | 0.02849 W/m/K
335.73 K, 2657.4 kPa | 0.02905 W/m/K
336.01 K, 4212.3 kPa | 0.02961 W/m/K
336.02 K, 4212.3 kPa | 0.02949 W/m/K
336.33 K, 2657.4 kPa | 0.02874 W/m/K
336.36 K, 2657.4 kPa | 0.02885 W/m/K
337.13 K, 4212.3 kPa | 0.03001 W/m/K and 0.0297 W/m/K
340.86 K, 2579.4 kPa | 0.02926 W/m/K
340.87 K, 2579.4 kPa | 0.02913 W/m/K
341.16 K, 2579.4 kPa | 0.02959 W/m/K
341.21 K, 2579.4 kPa | 0.02922 W/m/K
